Source: patent US20150104415A1, “Treatments of Hepatitis C virus infection” (DEBIOPHARM INTERNATIONAL SA, priority 2011, published 2015)

System: HCV GT1
Assay: Randomized, double-blind, placebo-controlled phase II study of DEB025 plus SOC (peg-IFNα2a plus RBV); virologic response by HCV RNA
Type: in vivo, patients
Protocol: This is an international, multicentre, randomized, double-blind, placebo-controlled, 4-arm, parallel-group phase II study comparing therapy with three doses of DEB025 (600 mg QD, 800 mg QD and 400 mg BID) plus SOC (peg-IFNα2a once weekly plus RBV BID) versus triple therapy with placebo matching DEB025 plus SOC in chronic HCV GT1 patients who were non-responders to prior SOC treatment, or who have relapsed after SOC treatment.
Approximately 344 patients will be randomized into one of 4 treatment arms (A, B, C (C1/C2) and D) in a 1:1:1:1 ratio. C1 and C2 patients will be randomized in a 1:1 ratio within arm C.
The randomization will be stratified by response status to previous treatment (non-responders/relapsers), BMI (<25 kg/m2 or ≧25 kg/m2) and IL28B polymorphism (CC or CT/TT) at screening.
The ratio non-responders and relapsers should be kept at 50% (172 patients) of the study population. An international, multicentre, randomized, double-blind, placebo-controlled, 4-arm, parallel-group phase II study comparing triple therapy with three doses of alisporivir (400 mg, 600 mg or 800 mg)+standard of care (SOC) versus triple therapy with placebo matching alisporivir plus SOC in […] chronic HCV GT1 patients who were non-responders to prior SOC treatment, or relapsers after SOC treatment is provided.
Patients are randomized into one of 4 treatment arms as described below in a 1:1:1:1 ratio. The randomization will be stratified by response status to previous treatment (non-responders/relapsers), BMI (<25 kg/m2 or ≧25 kg/m2) and IL28B polymorphism (CC or CT/TT) at screening. The ratio non-responders and relapsers should be kept at 50% (172 patients) of the study population.
• Alisporivir/Placebo 3 capsules of 200 mg (600 mg) alisporivir 2×/day (BID) orally for 1 week (loading dose) followed by 3 capsules of 200 mg (600 mg) alisporivir once per day (QD) plus 1 capsule of placebo QD for 47 weeks. Only in week 17 (dummy loading) patients receive 3 capsules of 200 mg (600 mg) alisporivir in the morning and 3 capsules of placebo in the evening. • Peg-IFNα2a 180 μg subcutaneously (s.c.) once weekly for 48 weeks • Ribavirin 1000 mg/day (<75 kg) or 1200 mg/day (≧75 kg) orally in two divided doses for 48 weeks
• alisporivir/Placebo 3 capsules of 200 mg (600 mg) alisporivir 2×/day orally for 1 week (loading dose) followed by 4 capsules alisporivir (800 mg) QD for 47 weeks. Only in week 17 (dummy loading) patients receive 3 capsules of 200 mg (600 mg) alisporivir in the morning and 1 capsule of 200 mg alisporivir plus 2 capsules of placebo in the evening. • Peg-IFNα2a 180 μg subcutaneously (s.c.) once weekly for 48 weeks • Ribavirin 1000 mg/day (<75 kg) or 1200 mg/day (≧75 kg) orally in two divided doses for 48 weeks Treatment C1 (will change to active treatment if cEVR not reached=arm C1A) • Placebo 3 capsules of placebo BID orally for 1 week (loading dose) followed by 4 capsules placebo QD for 47 weeks. […]
• Placebo alisporivir 1 capsule of placebo QD (in the morning) orally for 48 weeks 2 capsules of 200 mg (400 mg) alisporivir 2×/day orally for 48 weeks
• 180 μg s.c. once weekly for 48 weeks • Ribavirin 1000 mg/day (<75 kg) or 1200 mg/day (≧75 kg) orally in two divided doses for 48 weeks Treatment C2 (will change to active treatment if cEVR not reached=arm C2A) • DEB025 placebo 3 capsules of placebo orally in the morning and 2 capsules of placebo in the evening for 48 weeks. • Peg-IFNα2a 180 μg s.c. once weekly for 48 weeks • Ribavirin 1000 mg/day (<75 kg) or 1200 mg/day (≧75 kg) orally in two divided doses for 48 weeks
• Placebo 3 capsules of placebo orally as morning dose and 2 capsules of placebo as evening dose for 16 weeks. […]

[1] = Arm A, DEB 600 QD plus peg-IFNα2a/RBV, N = 81
[2] = Arm B, DEB 800 QD plus peg-IFNα2a/RBV, N = 84
[3] = Arm D, DEB 400 BID plus peg-IFNα2a/RBV, N = 78
[4] = DEB 400 BID arm plus SOC, Week 12

C/C=C/C[C@@H](C)[C@@H](O)[C@H]1C(=O)N[C@@H](CC)C(=O)N(C)[C@H](C)C(=O)N(CC)[C@@H](C(C)C)C(=O)N[C@@H](C(C)C)C(=O)N(C)[C@@H](CC(C)C)C(=O)N[C@@H](C)C(=O)N[C@H](C)C(=O)N(C)[C@@H](CC(C)C)C(=O)N(C)[C@@H](CC(C)C)C(=O)N(C)[C@@H](C(C)C)C(=O)N1C [DEB025, alisporivir]
RVR (rapid virologic response): patients with HCV RNA < LOQ (25 IU/mL) after 4 weeks of treatment (Arm A, DEB 600 QD (600 mg BID 1 week loading) plus peg-IFNα2a/RBV, N = 81, GT1 relapsers/non-responders): 19 (23.5) n (%) | EVR: HCV RNA decrease >= 2 log10 from baseline or < LOQ (25 IU/mL) after 12 weeks [1]: 64 (79.0) n (%) | cEVR (complete early virologic response, primary endpoint): HCV RNA < LOQ (25 IU/mL) after 12 weeks [1]: 36 (44.4) n (%) | pEVR (partial early virologic response): HCV RNA decrease >= 2 log10 from baseline and > LOQ (25 IU/mL) after 12 weeks [1]: 28 (34.6) n (%) | RVR (rapid virologic response): patients with HCV RNA < LOQ (25 IU/mL) after 4 weeks of treatment (Arm B, DEB 800 QD (600 mg BID 1 week loading) plus peg-IFNα2a/RBV, N = 84): 18 (21.4) n (%) | EVR: HCV RNA decrease >= 2 log10 from baseline or < LOQ (25 IU/mL) after 12 weeks [2]: 72 (85.7) n (%) | cEVR (complete early virologic response, primary endpoint): HCV RNA < LOQ (25 IU/mL) after 12 weeks [2]: 48 (57.1) n (%) | pEVR (partial early virologic response): HCV RNA decrease >= 2 log10 from baseline and > LOQ (25 IU/mL) after 12 weeks [2]: 24 (28.6) n (%) | EVR: HCV RNA decrease >= 2 log10 from baseline or < LOQ (25 IU/mL) after 12 weeks [3]: 63 (80.8) n (%) | RVR (rapid virologic response): patients with HCV RNA < LOQ (25 IU/mL) after 4 weeks of treatment [3]: 29 (37.2) n (%) | cEVR (complete early virologic response, primary endpoint): HCV RNA < LOQ (25 IU/mL) after 12 weeks [3]: 55 (70.5) n (%) | pEVR (partial early virologic response): HCV RNA decrease >= 2 log10 from baseline and > LOQ (25 IU/mL) after 12 weeks [3]: 8 (10.3) n (%) | proportion achieving RVR (DEB 400 BID arm plus SOC, Week 4): 37.2% | proportion achieving EVR [4]: 80.8% | proportion achieving cEVR [4]: 70.5% | patients achieved RVR (Week 4, all the DEB025 treatment arms (600 QD, 800 QD, 400 BID) plus SOC): > 20% | patients achieved EVR (Week 12, all the DEB025 treatment arms (600 QD, 800 QD, 400 BID) plus SOC): ≥ 79%
